Laboratory results published in the NIST ThermoML archive (doi:10.1016/j.fluid.2014.10.003).
Values joined by “and” are separate entries in the source; they are usually repeats but may differ in a detail not shown here. Identical values can stand only once.

Settings: Liquid, Vibrating tube method

CCCCC(CC)COC(=O)c1ccc(C(=O)OCC(CC)CCCC)c(C(=O)OCC(CC)CCCC)c1 (configuration not stated) [tris(2-ethylhexyl) trimellitate]
Settings | mass density
293.15 K, 100 kPa | 988.2 kg/m3
293.15 K, 2510 kPa | 989.6 kg/m3
293.15 K, 5000 kPa | 991 kg/m3
293.15 K, 7510 kPa | 992.4 kg/m3
293.15 K, 10010 kPa | 993.8 kg/m3
293.15 K, 15010 kPa | 996.6 kg/m3
293.15 K, 19990 kPa | 999.2 kg/m3
293.15 K, 30010 kPa | 1004.3 kg/m3
293.15 K, 40020 kPa | 1009.2 kg/m3
293.15 K, 50030 kPa | 1013.8 kg/m3
293.15 K, 68010 kPa | 1021.5 kg/m3
313.15 K, 100 kPa | 973.4 kg/m3
313.15 K, 2500 kPa | 974.9 kg/m3
313.15 K, 2510 kPa | 974.9 kg/m3
313.15 K, 5020 kPa | 976.4 kg/m3 and 976.5 kg/m3
313.15 K, 7490 kPa | 977.9 kg/m3
313.15 K, 10010 kPa | 979.4 kg/m3 and 979.5 kg/m3
313.15 K, 15010 kPa | 982.4 kg/m3
313.15 K, 20000 kPa | 985.3 kg/m3
313.15 K, 30030 kPa | 990.8 kg/m3
313.15 K, 40000 kPa | 996 kg/m3
313.15 K, 40020 kPa | 996 kg/m3
313.15 K, 50000 kPa | 1001 kg/m3
313.15 K, 68000 kPa | 1009.3 kg/m3
333.15 K, 100 kPa | 958.9 kg/m3
333.15 K, 2500 kPa | 960.4 kg/m3 and 960.5 kg/m3
333.15 K, 5000 kPa | 962.1 kg/m3
333.15 K, 7510 kPa | 963.8 kg/m3
333.15 K, 10010 kPa | 965.4 kg/m3
333.15 K, 15010 kPa | 968.6 kg/m3
333.15 K, 20000 kPa | 971.6 kg/m3
333.15 K, 30010 kPa | 977.6 kg/m3
333.15 K, 39990 kPa | 983.1 kg/m3
333.15 K, 50000 kPa | 988.4 kg/m3
333.15 K, 67990 kPa | 997.2 kg/m3
353.15 K, 100 kPa | 944.5 kg/m3
353.15 K, 2490 kPa | 946.2 kg/m3
353.15 K, 5020 kPa | 948.1 kg/m3
353.15 K, 7510 kPa | 949.8 kg/m3
353.15 K, 10020 kPa | 951.6 kg/m3
353.15 K, 14990 kPa | 955 kg/m3
353.15 K, 20010 kPa | 958.3 kg/m3
353.15 K, 30000 kPa | 964.7 kg/m3
353.15 K, 40020 kPa | 970.6 kg/m3
353.15 K, 49990 kPa | 976.2 kg/m3
353.15 K, 68000 kPa | 985.5 kg/m3
373.15 K, 100 kPa | 930.1 kg/m3
373.15 K, 2510 kPa | 932 kg/m3
373.15 K, 5020 kPa | 934 kg/m3
373.15 K, 7500 kPa | 935.9 kg/m3
373.15 K, 10040 kPa | 937.9 kg/m3
373.15 K, 15000 kPa | 941.6 kg/m3
373.15 K, 20030 kPa | 945.2 kg/m3
373.15 K, 30010 kPa | 952 kg/m3
373.15 K, 40020 kPa | 958.3 kg/m3
373.15 K, 49990 kPa | 964.3 kg/m3
373.15 K, 68010 kPa | 974.2 kg/m3
